Measurements reported in ChEMBL document CHEMBL5727040, “Factor XIa inhibitors” (2018).

Tests used:
Coagulation factor XI = Coagulation factor XI (Homo sapiens, UniProt P03951); assay: Inhibition Assay: Factor XIa determinations were made in 50 mM HEPES buffer at pH 7.4 containing 150 mM NaCl, 5 mM CaCl2, and 0.1% PEG 8000 (polyethylene glycol; JT Baker or Fisher Scientific). Determinations were made using purified human Factor XIa at a final concentration of 40 pM (Sekisui Diagnostics) and the synthetic substrate, Z-Gly-Pro-Arg-AFC, TFA salt (Sigma #C0980) at a concentration of 100 μM.
Coagulation factor XI, sequence (P03951 19-387 limits assumed): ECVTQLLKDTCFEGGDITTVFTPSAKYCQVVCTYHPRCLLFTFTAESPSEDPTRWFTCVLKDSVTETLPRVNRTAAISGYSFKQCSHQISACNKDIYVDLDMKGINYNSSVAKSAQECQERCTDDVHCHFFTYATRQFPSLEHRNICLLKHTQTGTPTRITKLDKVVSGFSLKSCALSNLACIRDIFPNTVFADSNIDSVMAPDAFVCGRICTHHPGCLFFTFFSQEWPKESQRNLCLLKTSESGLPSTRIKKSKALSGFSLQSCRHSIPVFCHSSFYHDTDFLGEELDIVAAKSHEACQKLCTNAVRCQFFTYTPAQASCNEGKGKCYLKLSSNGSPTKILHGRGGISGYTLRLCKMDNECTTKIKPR
Coagulation factor XI, sequence (P03951 388-625 limits assumed): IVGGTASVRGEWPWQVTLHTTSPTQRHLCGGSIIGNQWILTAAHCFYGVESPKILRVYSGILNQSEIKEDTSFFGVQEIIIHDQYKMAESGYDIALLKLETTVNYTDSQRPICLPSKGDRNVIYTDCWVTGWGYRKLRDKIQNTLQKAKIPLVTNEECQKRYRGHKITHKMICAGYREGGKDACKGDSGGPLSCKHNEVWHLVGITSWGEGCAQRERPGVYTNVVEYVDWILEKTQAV

Plasma kallikrein = Plasma kallikrein (Homo sapiens, UniProt P03952); assay: Kallikrein Assay: The effectiveness of a compound of the present invention as an inhibitor of Kallikrein can be determined using a relevant purified serine protease, and an appropriate synthetic substrate. The rate of hydrolysis of the chromogenic or fluorogenic substrate by the relevant serine protease was measured both in the absence and presence of compounds of the present invention. Assays were conducted at room temperature or at 37° C. […] A decrease in the rate of fluorescence change in the presence of inhibitor is indicative of enzyme inhibition. Such methods are known to one skilled in the art. […] Times required to achieve equilibration between enzyme and inhibitor were determined in control experiments. The reactions were performed under linear progress curve conditions and fluorescence increase measured at 405 Ex/510 Em nm. […] IC50 was determined by inflection point from a four parameter logistic curve fit. Ki was calculated using the Cheng Prusoff equation, Ki=IC50/(1+([S]/Km)).
Plasma kallikrein, sequence (P03952 20-390 limits assumed): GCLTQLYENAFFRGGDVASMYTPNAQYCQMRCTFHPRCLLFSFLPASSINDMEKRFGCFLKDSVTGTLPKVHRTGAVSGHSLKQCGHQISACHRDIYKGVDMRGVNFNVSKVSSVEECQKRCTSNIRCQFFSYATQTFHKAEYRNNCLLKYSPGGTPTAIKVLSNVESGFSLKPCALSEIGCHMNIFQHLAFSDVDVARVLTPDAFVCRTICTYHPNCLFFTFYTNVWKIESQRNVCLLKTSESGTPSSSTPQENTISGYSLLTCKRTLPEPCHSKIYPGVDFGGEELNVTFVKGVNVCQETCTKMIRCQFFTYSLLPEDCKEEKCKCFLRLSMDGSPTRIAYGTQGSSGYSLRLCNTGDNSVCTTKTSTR
Plasma kallikrein, sequence (P03952 391-638 limits assumed): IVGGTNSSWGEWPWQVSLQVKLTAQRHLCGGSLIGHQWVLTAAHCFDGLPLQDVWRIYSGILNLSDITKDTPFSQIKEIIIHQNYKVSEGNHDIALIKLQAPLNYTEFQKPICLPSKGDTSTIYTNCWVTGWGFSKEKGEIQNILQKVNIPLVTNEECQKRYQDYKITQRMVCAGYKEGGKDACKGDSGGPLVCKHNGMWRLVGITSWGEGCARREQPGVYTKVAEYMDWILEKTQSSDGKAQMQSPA

IC50 (Coagulation factor XI): 0.0185 µM
Compound: O=C(NC1CC=CC1)N1CCC(c2cccc([C@H](Cc3ccccc3)c3ccc(-c4cc(Cl)ccc4-n4cnnn4)c[n+]3[O-])c2)CC1
IC50 (Plasma kallikrein): 0.696 µM
